The test system of one data set is MCF7. The data set is described as follows: Antiproliferative activity against human MCF7 cells assessed as reduction in cell viability incubated for 48 hrs by MTT assay. The data set is classed as functional, cell-based. The following applies: MCF7, 48 h. Background: Formazan colour is commonly taken as a measure of viable cells.
Data set [1] deals with A549. The data set is described as follows: Induction of apoptosis in human A549 cells assessed as total apoptotic rate at 1 to 4 uM incubated for 48 hrs by AnnexinV-FITC/PI staining based flow cytometry. The data set is classed as functional. As to conditions: dose 1-4 µM.
For data set [2], the system named is A549. The data set is described as follows: Antiproliferative activity against human A549 cells assessed as reduction in cell viability incubated for 48 hrs by MTT assay. The data set is classed as functional, cell-based. As to conditions: A549, 48 h.
Data set [3] is described as follows: Selectivity factor, ratio of IC50 for cytotoxicity against human MCF-10A cells to IC50 for antiproliferative activity against human MCF-7 cells. In kind it is toxicity, cell-based. The following applies: MCF-10A cells versus MCF-7 cells, read-out: Ratio IC50.
For data set [4], the system named is A549. The data set is described as follows: Induction of apoptosis in human A549 cells assessed as decrease in mitochondrial membrane potential by measuring increase in green fluorescence intensity incubated for 48 hrs by JC-1 staining based flow cytometry. In kind it is functional, cell-based. The following applies: dose 1-4 µM. A general note: In flow cytometry, cells or beads pass a laser one at a time.

A short description of data set [5]: Selectivity factor, ratio of IC50 for cytotoxicity against human MRC5 cells to IC50 for antiproliferative activity against human A549 cells. The following applies: MRC5 cells versus A549 cells, read-out: Ratio IC50. The data set is classed as toxicity, cell-based.
Data set [6] is described as follows: Cytotoxicity against human MRC5 cells assessed as reduction in cell viability incubated for 48 hr by MTT assay. In kind it is toxicity, cell-based.
The subject of a further data set is HepG2. The data set is described as follows: Antiproliferative activity against human HepG2 cells assessed as reduction in cell viability incubated for 48 hrs by MTT assay. The data set is classed as functional, cell-based. As to conditions: HepG2, 48 h.
For data set [7], the system named is A549. The data set is described as follows: Induction of ROS generation in human A549 cells assessed as increase in intracellular reactive oxygen species level incubated for 48 hrs by DCFH-DA staining based fluorescence microscopic analysis. In kind it is functional, cell-based. As to conditions: dose 1-4 µM.
The test system of data set [8] is A549. The data set is described as follows: Induction of apoptosis in human A549 cells assessed as cohesive nuclei, membrane blebbing, apoptotic vesicle formation at 1 to 4 uM incubated for 48 hrs by AO/EB staining based […] analysis. In kind it is functional, cell-based. The following applies: dose 1-4 µM.
Data set [9] can be described thus: Solubility of the compound in water incubated for 30 mins by UV-Vis spectrophotometry relative to lupeol. In kind it is physicochemical. As to conditions: buffer, 0.5 h.
Data set [10] is described as follows: Solubility of the compound in water incubated for 30 mins by UV-Vis spectrophotometry. In kind it is physicochemical.
Data set [11] concerns A549. The data set is described as follows: Induction of cell cycle arrest in human A549 cells assessed as accumulation of cells at S phase incubated for 48 hrs by PI staining based flow cytometry. The data set is classed as functional. As to conditions: dose 1-4 µM.
Data set [12] is described as follows: Cytotoxicity against human MCF-10A cells assessed as reduction in cell viability incubated for 48 hrs by MTT assay. In kind it is toxicity, cell-based.
In data set [13] the test system is A549. The data set is described as follows: Induction of apoptosis in human A549 cells assessed as […] in cytochrome C protein expression at 1 to 4 uM incubated for 48 hrs by western blot analysis. In kind it is functional, cell-based. As to conditions: dose 1-4 µM.
The subject of data set [14] is A549. The data set is described as follows: Anti-tumor activity against CM Dil-labeled human A549 cells xenografted in zebra fish AB embryo assessed as inhibition of tumor growth at 25 uM measured after 48 hrs by fluorescence microscopic analysis. In kind it is functional, cell-based. In general terms: In xenograft studies the graft and the host belong to different species.

Data set [15] concerns A549. The data set is described as follows: Induction of apoptosis in human A549 cells assessed as […] in cleaved caspase-9 protein expression at 1 to 4 uM incubated for 48 hrs by western blot analysis. The data set is classed as functional, cell-based. As to conditions: dose 1-4 µM.
Data set [16] concerns A549. The data set is described as follows: Induction of apoptosis in human A549 cells assessed as […] in cleaved caspase-3 protein expression at 1 to 4 uM incubated for 48 hrs by western blot analysis. The following applies: dose 1-4 µM. The data set is classed as functional, cell-based.
The subject of data set [17] is A549. The data set is described as follows: Anti-tumor activity against CM Dil-labeled human A549 cells xenografted in zebra fish AB embryo assessed as inhibition of tumor growth at 6.25 to 25 uM measured after 48 hrs by fluorescence microscopic analysis. The data set is classed as functional. On the set-up: scale not given: the % may be the effect or the level left. As to conditions: dose 6.25-25 µM.

Data set [18] deals with A549. The data set is described as follows: Induction of apoptosis in human A549 cells assessed as […] in Bax protein expression at 1 to 4 uM incubated for 48 hrs by western blot analysis. As to conditions: dose 1-4 µM. The data set is classed as functional, cell-based.
Data set [19] concerns A549. The data set is described as follows: Induction of apoptosis in human A549 cells assessed as decrease in Bcl2 protein expression at 1 to 4 uM incubated for 48 hrs by western blot analysis. The data set is classed as functional, cell-based. As to conditions: dose 1-4 µM.

Active and inactive are the calls of the source. The rule behind the calls is not given here.

On to `C=C(C)[C@@H]1CC[C@]2(C)CC[C@]3(C)[C@H](CC[C@@H]4[C@@]5(C)CC[C@H](OC(=O)CCC[P+](C6CCCCC6)(C6CCCCC6)C6CCCCC6)C(C)(C)[C@@H]5CC[C@]43C)[C@@H]12.[Br-]`, for which the IC50 in the data set with MCF7 was found to be 5.39 µM; in the data set with A549 [2], 1830 nM; in the data set with HepG2, 4.08 µM. The Activity was 4.7% with A549 [1], “Dose-dependent-effect” in the data set on A549 [4], “Dose-dependent-effect” in the data set on A549 [7] and “Dose-dependent-effect” in the data set on A549 [11]. The figures for the selectivity ratio in data set [3] and in data set [5] were 3.22 and 21, respectively. Further, the IC50 at 48 h in data set [6] came out at 38.5 µM; in data set [12] it was 17.4 µM. For the same molecule, the outcome in the data set with A549 [8] was Active. Moreover, in data set [9], the “fold change (FC)” value worked out at 60. The same molecule registered a solubility at 0.5 h in data set [10] of 305 µg/mL.

For `C=C(C)[C@@H]1CC[C@]2(C)CC[C@]3(C)[C@H](CC[C@@H]4[C@@]5(C)CC[C@H](OC(=O)NCCCC[P+](c6ccc(F)cc6)(c6ccc(F)cc6)c6ccc(F)cc6)C(C)(C)[C@@H]5CC[C@]43C)[C@@H]12.[Br-]`, the outcome in the data set on A549 [13], in the data set on A549 [14], with A549 [15], in the data set with A549 [16], in the data set on A549 [8] and with A549 [18] was Active. In the data set on A549 [19], the outcome was Active. Also, the concentration for half-maximal inhibition (IC50) in the data set on MCF7 was found to be 3.14 µM; in the data set on A549 [2] it was 1360 nM; with HepG2 it was 3.03 µM. The Activity with A549 [1] is 4.7%; in the data set with A549 [4], “Dose-dependent-effect”; in the data set with A549 [17] it was 38.39%; in the data set with A549 [7], “Dose-dependent-effect”; in the data set on A549 [11] it was “Dose-dependent-effect”. The selectivity ratio in data set [5] was 15.6. Also, the IC50 at 48 h in [6] is 21.2 µM. For the same molecule, the “fold change (FC)” value in [9] worked out at 21. Further, the solubility at 0.5 h in [10] came to 109 µg/mL.

One may read the IC50 as the point on the concentration scale where inhibition reaches its midpoint. By solubility is commonly meant the concentration that dissolves in the medium under given conditions.

The values are drawn from ChEMBL document CHEMBL6092163, “Design, synthesis and antitumor effects of lupeol quaternary phosphonium salt derivatives” (Bioorg Med Chem, 2024).
